In PubChem BioAssay AID1259411 (Chemical Carcinogenesis Research Information System (CCRIS), 2018):
The source made the active and inactive calls. The rule behind the calls is not given here.

System: rodent carcinogenicity bioassays, tumor incidence
Assay: CCRIS carcinogenicity studies
In short: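 NCI-built, expert-reviewed records of carcinogenicity and related test outcomes (mutagenicity, tumor promotion/inhibition) compiled from published and report sources, historical span 1985-2011, not updated.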

## Nc1ncn[nH]1
Species: HAMSTER, Strain/Sex: SYRIAN/FEMALE, Route: ORAL, Dose: 0, 1, 10, 100 PPM IN DIET (TOTAL DOSE: 0; 0.07; 0.6; 6.6 G/KG) FOR 822-856 D (STUDY DURATION: LIFETIME), Dose: 0, 1, 10, 100 PPM IN DIET (TOTAL DOSE: 0; 0.07; 0.6; 6.6 G/KG) FOR 822-856 D (STUDY DURATION: LIFETIME)
  carcinogen call: inactive; negative
Species: HAMSTER, Strain/Sex: SYRIAN/MALE, Route: ORAL, Dose: 0, 1, 10, 100 PPM IN DIET (TOTAL DOSE: 0; 0.08; 0.8; 7.2 G/KG) FOR 885-979 D (STUDY DURATION: LIFETIME), Dose: 0, 1, 10, 100 PPM IN DIET (TOTAL DOSE: 0; 0.08; 0.8; 7.2 G/KG) FOR 885-979 D (STUDY DURATION: LIFETIME)
  carcinogen call: inactive; negative
Species: MOUSE, Route: ORAL, Tumor Site: Type of Lesion: LIVER, THYROID GLAND
  carcinogen call: active; positive
Species: MOUSE, Strain/Sex: NMRI/FEMALE, Route: ORAL, Dose: 0, 1, 10, 100 PPM IN DIET (TOTAL DOSE: 0; 0.17; 1.7; 18.2 G/KG) FOR 970-1027 D (STUDY DURATION: LIFETIME), Dose: 0, 1, 10, 100 PPM IN DIET (TOTAL DOSE: 0; 0.17; 1.7; 18.2 G/KG) FOR 970-1027 D (STUDY DURATION: LIFETIME)
  carcinogen call: inactive; negative
Species: MOUSE, Strain/Sex: NMRI/MALE, Route: ORAL, Dose: 0, 1, 10, 100 PPM IN DIET (TOTAL DOSE: 0; 0.13; 1.3; 13.1 G/KG) FOR 1022-1028 D (STUDY DURATION: LIFETIME), Dose: 0, 1, 10, 100 PPM IN DIET (TOTAL DOSE: 0; 0.13; 1.3; 13.1 G/KG) FOR 1022-1028 D (STUDY DURATION: LIFETIME)
  carcinogen call: inactive; negative
Species: RAT, Route: ORAL, Tumor Site: Type of Lesion: LIVER, THYROID GLAND
  carcinogen call: active; positive
Species: RAT, Route: SUBCUTANEOUS, Tumor Site: Type of Lesion: INJECTION SITE, LIVER, THYROID GLAND, Tumor Site: Type of Lesion: INJECTION SITE, LIVER, THYROID GLAND
  carcinogen call: active; positive
Species: RAT, Strain/Sex: WISTAR/FEMALE, Route: ORAL, Dose: 0, 1, 10, 100 PPM IN DIET (TOTAL DOSE: 0; 0.08; 0.8; 7.9 G/KG) FOR 1140-1143 D (STUDY DURATION: LIFETIME), Dose: 0, 1, 10, 100 PPM IN DIET (TOTAL DOSE: 0; 0.08; 0.8; 7.9 G/KG) FOR 1140-1143 D (STUDY DURATION: LIFETIME), Tumor Site: Type of Lesion: THYROID GLAND: MALIGNANT TUMOR
  carcinogen call: active; positive
Species: RAT, Strain/Sex: WISTAR/MALE, Route: ORAL, Dose: 0, 1, 10, 100 PPM IN DIET (TOTAL DOSE: 0; 0.06; 0.6; 5.8 G/KG) FOR 1137-1143 D (STUDY DURATION: LIFETIME), Dose: 0, 1, 10, 100 PPM IN DIET (TOTAL DOSE: 0; 0.06; 0.6; 5.8 G/KG) FOR 1137-1143 D (STUDY DURATION: LIFETIME), Tumor Site: Type of Lesion: THYROID GLAND: MALIGNANT TUMOR
  carcinogen call: active; positive

## [O-][Cl+]O
Species: RAT, Strain/Sex: F344/FEMALE, Route: ORAL, Dose: 0, 0.03, 0.06% IN DRINKING WATER FOR 85 WK (STUDY DURATION: 85 WK), Dose: 0, 0.03, 0.06% IN DRINKING WATER FOR 85 WK (STUDY DURATION: 85 WK)
  carcinogen call: inactive; negative
Species: RAT, Strain/Sex: F344/MALE, Route: ORAL, Dose: 0, 0.03, 0.06% IN DRINKING WATER FOR 85 WK (STUDY DURATION: 85 WK), Dose: 0, 0.03, 0.06% IN DRINKING WATER FOR 85 WK (STUDY DURATION: 85 WK)
  carcinogen call: inactive; negative

## CNc1ccc(N=Nc2ccccc2)cc1
Species: MOUSE, Strain/Sex: B6C3F1/FEMALE, Route: INTRAPERITONEAL, Dose: 0, 0.3 UMOL/G IN TRIOCTANOIN ONCE ON DAY 1 FOLLOWED BY 0.4 UMOL/G ONCE ON DAY 8, 15 AND 22 (STUDY DURATION: 10 MO)
  carcinogen call: inactive; negative
Species: MOUSE, Strain/Sex: B6C3F1/MALE, Route: INTRAPERITONEAL, Dose: 0, 0.017, 0.05, 0.15, 0.45 UMOL/G ONCE IN TRIOCTANOIN (STUDY DURATION: 10 MO), Dose: 0, 0.017, 0.05, 0.15, 0.45 UMOL/G ONCE IN TRIOCTANOIN (STUDY DURATION: 10 MO), Tumor Site: Type of Lesion: LIVER: HEPATOMA
  carcinogen call: active; positive
Species: MOUSE, Strain/Sex: B6C3F1/MALE, Route: INTRAPERITONEAL, Dose: 0, 0.3 UMOL/G IN TRIOCTANOIN ONCE ON DAY 1 FOLLOWED BY 0.4 UMOL/G ONCE ON DAY 8, 15 AND 22 (STUDY DURATION: 10 MO), Tumor Site: Type of Lesion: LIVER: HEPATOMA
  carcinogen call: active; positive
Species: MOUSE, Strain/Sex: C3H/MALE, Route: INTRAPERITONEAL, Dose: 0, 0.45 UMOL/G ONCE IN TRIOCTANOIN (STUDY DURATION: 11 MO), Tumor Site: Type of Lesion: LIVER: HEPATOMA
  carcinogen call: active; positive
Species: MOUSE, Strain/Sex: C57BL/MALE, Route: INTRAPERITONEAL, Dose: 0, 0.45 UMOL/G ONCE IN TRIOCTANOIN (STUDY DURATION: 11 MO), Tumor Site: Type of Lesion: LIVER: HEPATOMA
  carcinogen call: active; positive
Species: RAT, Strain/Sex: F344/MALE, Route: INTRAPERITONEAL, Dose: 0, 0.3 UMOL/G IN TRIOCTANOIN ONCE ON DAY 1 FOLLOWED BY 0.4 UMOL/G ONCE ON DAY 8, 15 AND 22 (STUDY DURATION: 24 MO), Tumor Site: Type of Lesion: LIVER: HEPTOCELLULAR CARCINOMA
  carcinogen call: active; positive
Species: RAT, Strain/Sex: SHERMAN, Route: ORAL, Dose: 0.056% IN DIET FOR 132 TO 250 D, Tumor Site: Type of Lesion: LIVER: HEPATOMA
  carcinogen call: active; positive
Species: RAT, Strain/Sex: SPRAGUE-DAWLEY/MALE, Route: ORAL, Dose: 0.056% IN DIET FOR 4 MO, Tumor Site: Type of Lesion: LIVER: HEPATOMA
  carcinogen call: active; positive

## Cc1c2ccccc2c(COS(=O)(=O)O)c2ccc3ccccc3c12
Species: MOUSE, Strain/Sex: B6C3F1/MALE, Route: INTRAPERITONEAL, Dose: 0, 0.001, 0.003, 0.01 UMOL/G IN 5 µL/G DMSO ONCE ON D 12 OF AGE (STUDY DURATION: 10 MO), Dose: 0, 0.001, 0.003, 0.01 UMOL/G IN 5 µL/G DMSO ONCE ON D 12 OF AGE (STUDY DURATION: 10 MO), Tumor Site: Type of Lesion: LIVER: HEPATOMA
  carcinogen call: active; positive
Species: MOUSE, Strain/Sex: B6C3F1/MALE, Route: INTRAPERITONEAL, Dose: 0, 0.0025 UMO1/G IN 10 ML/G TRIOCTANOIN ON 12, 16, 20, AND 24 D OF AGE (STUDY DURATION: 10 MO), Tumor Site: Type of Lesion: LIVER: HEPATOMA
  carcinogen call: active; positive
Species: MOUSE, Strain/Sex: B6C3F1/MALE, Route: INTRAPERITONEAL, Dose: 0, 0.0025 UMOL/G IN 10 µL/G TRIOCTANOIN ONCE ON D 12 OF AGE (STUDY DURATION: 10 MO), Tumor Site: Type of Lesion: LIVER: HEPATOMA
  carcinogen call: active; positive
Species: MOUSE, Strain/Sex: STRAIN-A/FEMALE, Route: INTRAPERITONEAL, Dose: 0, 0.1 001;0.003, 0.01 UMOL/G IN 5 µL DMSO/G ONCE AT 4-6 WK OF AGE (STUDY DURATION: 6 MO), Dose: 0, 0.1 001;0.003, 0.01 UMOL/G IN 5 µL DMSO/G ONCE AT 4-6 WK OF AGE (STUDY DURATION: 6 MO)
  carcinogen call: inactive; negative
Species: RAT, Strain/Sex: SPRAGUE-DAWLEY/FEMALE, Route: SUBCUTANEOUS, Dose: 0, 0.2 UMOL 3/WK FOR 20 DOSES (STUDY DURATION: 52 WK), Tumor Site: Type of Lesion: INJECTION SITE: SARCOMA
  carcinogen call: active; positive
Species: RAT, Strain/Sex: SPRAGUE-DAWLEY/FEMALE, Route: SUBCUTANEOUS, Dose: 0, 2 UMOL IN 0.25 ML TRIOCTANOIN INTO LEFT HIND LEG AT ABOUT 40 D OF AGE FOLLOWED BY A SECOND DOSE 6 D LATER (STUDY DURA
  carcinogen call: inactive; negative
Species: RAT, Strain/Sex: SPRAGUE-DAWLEY/FEMALE, Route: SUBCUTANEOUS, Dose: 0, 2 UMOL IN 0.25 ML TRIOCTANOIN ONCE INTO LEFT HIND LEG AT ABOUT 40 D OF AGE (STUDY DURATION: 16 MO)
  carcinogen call: inactive; negative

## O=c1ccc(O)n[nH]1
Species: Mouse, Strain/Sex: Charles River CD-1/Female (50/Group), Route: Oral, Dose: 0, 189, 598, 1811 mg/kg/day of 90% maleic hydrazide potassium salt in diet for 98 wk, study duration 98 wk, Dose: 0, 189, 598, 1811 mg/kg/day of 90% maleic hydrazide potassium salt in diet for 98 wk, study duration 98 wk
  carcinogen call: inactive; negative
Species: Mouse, Strain/Sex: Charles River CD-1/Male (50/Group), Route: Oral, Dose: 0, 157, 509, 1545 mg/kg/day of 90% maleic hydrazide potassium salt in diet for 98 wk, study duration 98 wk, Dose: 0, 157, 509, 1545 mg/kg/day of 90% maleic hydrazide potassium salt in diet for 98 wk, study duration 98 wk
  carcinogen call: inactive; negative
Species: Rat, Strain/Sex: Sprague-Dawley/Female (50/Group), Route: Oral, Dose: 0, 25, 500, 1000 mg/kg/day of 72.5-73.8% as maleic hydrazide in diet for 104 wk, study duration 104 wk, Dose: 0, 25, 500, 1000 mg/kg/day of 72.5-73.8% as maleic hydrazide in diet for 104 wk, study duration 104 wk
  carcinogen call: inactive; negative
Species: Rat, Strain/Sex: Sprague-Dawley/Male (50/Group), Route: Oral, Dose: 0, 25, 500, 1000 mg/kg/day of 72.5-73.8% as maleic hydrazide in diet for 104 wk, study duration 104 wk, Dose: 0, 25, 500, 1000 mg/kg/day of 72.5-73.8% as maleic hydrazide in diet for 104 wk, study duration 104 wk
  carcinogen call: inactive; negative
